Assay: xn = mol fraction of the nth substance listed
Settings: Liquid, vibrating tube

C1CCOC1 [tetrahydrofuran] + O
mass density [kg/m3]
Settings	78.5 kPa	100.7 kPa
293.24 K, x2 = 0.3407	907.81	907.93
293.24 K, x2 = 0.988	995.8	995.84
293.25 K, x2 = 0.9826	994.97	994.99
293.25 K, x2 = 0.9921	996.53	996.6
293.26 K, x2 = 0.0208	888.12	888.29
293.26 K, x2 = 0.0404	889.02	889.18
293.26 K, x2 = 0.0872	892.05	892.21
293.26 K, x2 = 0.9418	990.31	990.26
293.26 K, x2 = 0.9519	991.46	991.41
293.26 K, x2 = 0.9573	992.11	992.05
293.26 K, x2 = 0.9709	993.71	993.65
293.26 K, x2 = 0.9723	993.83	993.77
293.27 K, x2 = 0.0269	888.46	888.63
293.27 K, x2 = 0.0429	889.18	889.35
293.27 K, x2 = 0.0593	890.14	890.31
293.27 K, x2 = 0.6092	934.46	934.53
293.28 K, x2 = 0.8857	981.21	981.18
298.21 K, x2 = 0.3407	902.44	902.65
298.22 K, x2 = 0.0872	886.71	886.95
298.22 K, x2 = 0.988	994.42	994.44
298.22 K, x2 = 0.9921	995.23	995.24
298.23 K, x2 = 0.0269	883.01	883.22
298.23 K, x2 = 0.9418	987.77	987.8
298.23 K, x2 = 0.9723	992.08	992.11
298.23 K, x2 = 0.9826	993.47	993.49
298.24 K, x2 = 0.0208	882.73	882.93
298.24 K, x2 = 0.0593	884.65	884.9
298.24 K, x2 = 0.9573	989.99	990.02
298.24 K, x2 = 0.9709	991.93	991.95
298.25 K, x2 = 0.0429	883.9	883.99
298.25 K, x2 = 0.6092	929.43	929.58
298.25 K, x2 = 0.9519	989.15	989.18
298.26 K, x2 = 0.8857	977.6	977.65
298.29 K, x2 = 0.0404	883.74	883.83
303.07 K, x2 = 0.3407	897.21	897.4
303.09 K, x2 = 0.9418	985.17	985.19
303.1 K, x2 = 0.0269	877.63	877.86
303.1 K, x2 = 0.0872	881.49	881.71
303.1 K, x2 = 0.9519	986.82	986.81
303.1 K, x2 = 0.988	993	992.98
303.1 K, x2 = 0.9921	993.8	993.78
303.11 K, x2 = 0.0404	878.23	878.45
303.11 K, x2 = 0.0593	879.35	879.58
303.11 K, x2 = 0.9573	987.79	987.78
303.11 K, x2 = 0.9723	990.22	990.21
303.11 K, x2 = 0.9826	991.87	991.85
303.12 K, x2 = 0.0208	877.38	877.61
303.12 K, x2 = 0.6092	924.49	924.62
303.12 K, x2 = 0.9709	990.08	990.06
303.13 K, x2 = 0.0429	878.4	878.63
303.13 K, x2 = 0.8857	974.05	974.07
308.19 K, x2 = 0.3407	891.62	891.86
308.22 K, x2 = 0.0872	875.87	876.14
308.22 K, x2 = 0.9418	982.23	982.27
308.22 K, x2 = 0.9519	984.2	984.24
308.22 K, x2 = 0.9921	991.99	992.01
308.23 K, x2 = 0.0269	871.92	872.19
308.23 K, x2 = 0.0404	872.54	872.75
308.23 K, x2 = 0.0593	873.61	873.88
308.23 K, x2 = 0.988	991.08	991.1
308.24 K, x2 = 0.0208	871.65	871.93
308.24 K, x2 = 0.9723	988.08	988.11
308.24 K, x2 = 0.9826	989.93	989.95
308.25 K, x2 = 0.6092	919.21	919.38
308.25 K, x2 = 0.8857	970.11	970.18
308.25 K, x2 = 0.9573	985.24	985.28
308.25 K, x2 = 0.9709	987.99	987.82
308.26 K, x2 = 0.0429	872.71	872.89
313.26 K, x2 = 0.3407	886.03	886.33
313.28 K, x2 = 0.0269	866.21	866.56
313.28 K, x2 = 0.0872	869.29	869.63
313.28 K, x2 = 0.9418	979.18	979.28
313.29 K, x2 = 0.0593	867.9	868.25
313.29 K, x2 = 0.9519	981.33	981.43
313.29 K, x2 = 0.9921	990.02	990.1
313.3 K, x2 = 0.0404	866.86	867.21
313.3 K, x2 = 0.988	989.08	989.16
313.31 K, x2 = 0.9826	987.78	987.87
313.32 K, x2 = 0.6092	913.96	914.2
313.32 K, x2 = 0.9723	985.71	985.8
313.33 K, x2 = 0.9709	985.46	985.55
313.34 K, x2 = 0.0208	866.07	866.42
313.34 K, x2 = 0.8857	966.2	966.33
313.34 K, x2 = 0.9573	982.55	982.65
313.35 K, x2 = 0.0429	867.1	867.44

Reference: the NIST ThermoML archive (doi:10.1016/j.jct.2012.08.033)
